Tests used:
[1] = test system: DU 145 (human prostate carcinoma cells); experiment: Anti-proliferative activity, DU 145 cells (WST1 colorimetric test); type: cell-based; details: DU-145, 96 h, 96 hours treatment, up to 10 μM, nested upper bounds, read-out: IC50 for proliferation of the DU 145 cell lines
Experimental: (§1) ii) Characterisation of Anti-Proliferative Activity:
(§2) By way of an example, the effect of treating two human cell lines MIA PaCa-2 and DU 145 with the compounds of the examples described hereinbefore will be studied. The cell lines DU 145 (human prostate carcinoma cells) and MIA PaCa-2 (human pancreatic carcinoma cells) were obtained from the American Tissue Culture Collection (Rockville, Md., USA). A 96-well plate was inoculated on day 0 with cells in 80 μl of Dulbecco's modified Eagle's medium (Gibco-Brl, Cergy-Pontoise, France) with 10% heat-inactivated foetal calf serum (Gibco-Brl, Cergy-Pontoise, France), 50,000 units/l of penicillin and 50 mg/l of streptomycin (Gibco-Brl, Cergy-Pontoise, France) and 2 mM of glutamine (Gibco-Brl, Cergy-Pontoise, France). The cells were treated on day 1 for 96 hours with increasing concentrations of each test compound up to 10 μM. At the end of this period, cell proliferation is quantified by means of a colorimetric test based on cleavage of the tetrazolium salt WST1 by the mitochondrial dehydrogenases in the viable cells, resulting in formation of formazan (Boehringer Mannheim, Meylan, France). These tests are performed in duplicate with 8 determinations per concentration tested. For each test compound, the values within the linear part of the sigmoid curve were subjected to linear regression analysis and used to estimate the IC50 inhibitory concentration. The products are solubilised in dimethylsulfoxide (DMSO) at a concentration of 10^−2 M and used in culture with a final DMSO concentration of 0.1%.

[2] = biological target: T1, purified recombinant CDC25C enzyme (MBP-CDC25C protein) (Homo sapiens, UniProt P30307); experiment: Phosphatase activity of the purified recombinant CDC25C enzyme (OMFP dephosphorylation, fluorescence); type: biochemical; details: OMFP 500 μM, 4 hours at 30° C., three independent experiments; nested upper bounds; read-out: IC50 for the phosphatase activity of the purified recombinant CDC25-C enzyme
T1 construct: made in house
T1 sequence (P30307 1-473): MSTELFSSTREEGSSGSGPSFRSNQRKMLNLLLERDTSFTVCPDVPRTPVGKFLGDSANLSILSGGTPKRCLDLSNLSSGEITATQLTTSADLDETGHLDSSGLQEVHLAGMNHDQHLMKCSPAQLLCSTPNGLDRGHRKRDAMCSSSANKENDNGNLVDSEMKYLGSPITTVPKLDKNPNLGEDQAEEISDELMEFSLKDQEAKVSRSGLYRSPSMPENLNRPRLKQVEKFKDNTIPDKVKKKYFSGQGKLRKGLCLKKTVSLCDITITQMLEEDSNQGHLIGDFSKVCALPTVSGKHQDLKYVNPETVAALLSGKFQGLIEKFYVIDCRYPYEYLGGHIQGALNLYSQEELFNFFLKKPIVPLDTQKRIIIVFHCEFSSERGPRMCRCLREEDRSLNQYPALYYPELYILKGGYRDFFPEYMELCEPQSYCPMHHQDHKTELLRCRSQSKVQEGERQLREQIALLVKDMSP
Experimental: i) Determination of the Phosphatase Activity of the Purified Recombinant CDC25C Enzyme:
The phosphatase activity of the MBP-CDC25C protein is evaluated through its dephosphorylation of 3-O-methylfluorescein-phosphate (OMFP) to form 3-O-methylfluorescein (OMF), determining the fluorescence of the reaction product at 475 nm. This assay can be used to identify inhibitors of the recombinant CDC25 enzyme. The preparation of the MBP-CDC25C fusion protein is described in the PCT patent application published under the number WO 01/44467.
The reaction is performed in 384-well plates in a final volume of 50 μl. The MBP-CDC25C protein (prepared as described hereinabove) is stored in the following elution buffer: 20 mM Tris-HCl pH 7.4; 250 mM NaCl; 1 mM EDTA; 1 mM dithiothreitol (DTT); 10 mM maltose. It is diluted to a concentration of 60 μM in the following reaction buffer: 50 mM Tris-HCl pH 8.2; 50 mM NaCl; 1 mM DTT; 20% glycerol. The background noise is determined using with the buffer without adding the enzyme. The products are tested at decreasing concentrations from 40 μM. The reaction is initiated by the addition of OMFP solution to a final concentration of 500 μM (prepared immediately before use from a 12.5 mM stock solution in 100% DMSO (Sigma #M2629)). After 4 hours at 30° C. in a disposable 384-well plate, the fluorescence measured at OD 475 nm is read on a Victor^2 plate reader (EGG-Wallac). The concentration that produces 50% inhibition of the enzyme reaction is calculated from three independent experiments. Only the values that fall within the linear part of the sigmoid curve are used for the linear regression analysis.

[3] = test system: MIA PaCa-2 (human pancreatic carcinoma cells); experiment: Anti-proliferative activity, MIA PaCa-2 cells (WST1 colorimetric test); type: cell-based; details: MIA PaCa-2, 96 h, 96 hours treatment, up to 10 μM, nested upper bounds, read-out: IC50 for proliferation of the MIA PaCa-2 cell lines
Experimental: as §1, §2

SMILES	IC50 [1]	melting point	IC50 [2]	IC50 [3]
O=c1c(NCCNc2cc(N3CCCC3)nc(N3CCCC3)n2)c(Nc2cccc(Cl)c2)c1=O [Example 17, 3-[(3-chlorophenyl)amino]-4-({2-[(2,6-dipyrrolidin-1-ylpyrimidin-4-yl)amino]ethyl}amino)cyclobut-3-ene-1,2-dione]	≤ 10 µM	209 to 211 °C	≤ 5 µM	≤ 10 µM
COc1cccc(Nc2c(NCCNc3cc(N4CCCC4)nc(N4CCCC4)n3)c(=O)c2=O)c1 [Example 20, 3-({2-[(2,6-dipyrrolidin-1-ylpyrimidin-4-yl)amino]ethyl}amino)-4-[(3-methoxyphenyl)amino]cyclobut-3-ene-1,2-dione]	≤ 10 µM	205 to 207 °C	≤ 5 µM	≤ 10 µM
COc1ccc(Nc2c(NCCNc3cc(N4CCCC4)nc(N4CCCC4)n3)c(=O)c2=O)cc1 [Example 18, 3-({2-[(2,6-dipyrrolidin-1-ylpyrimidin-4-yl)amino]ethyl}amino)-4-[(4-methoxyphenyl)amino]cyclobut-3-ene-1,2-dione]	≤ 10 µM	235 to 237 °C	≤ 1 µM	≤ 10 µM
O=c1c(NCCNc2cc(N3CCCC3)nc(N3CCCC3)n2)c(Nc2ccc(Cl)c(F)c2)c1=O [Example 36, 3-[(4-chloro-3-fluorophenyl)amino]-4-({2-[(2,6-dipyrrolidin-1-ylpyrimidin-4-yl)amino]ethyl}amino)cyclobut-3-ene-1,2-dione]	≤ 10 µM	–	≤ 1 µM	–
CN(CCNc1cc(N2CCCC2)nc(N2CCCC2)n1)CCNc1c(Nc2ccc(Cl)cc2)c(=O)c1=O [Example 8, 3-[(4-chlorophenyl)amino]-4-({2-[{2-[(2,6-dipyrrolidin-1-ylpyrimidin-4-yl)amino]ethyl}(methyl)amino]ethyl}amino)cyclobut-3-ene-1,2-dione]	≤ 10 µM	144 to 146 °C	≤ 5 µM	≤ 10 µM
CN(Cc1ccc(Nc2c(NCCNc3cc(N4CCCC4)nc(N4CCCC4)n3)c(=O)c2=O)cc1)C(=O)OC(C)(C)C [Example 21, tert-butyl (4-{[2-({2-[(2,6-dipyrrolidin-1-ylpyrimidin-4-yl)amino]ethyl}amino)-3,4-dioxocyclobut-1-en-1-yl]amino}benzyl)methylcarbamate]	≤ 10 µM	–	≤ 1 µM	≤ 10 µM
O=c1c(NCCNc2cc(N3CCCC3)nc(N3CCCC3)n2)c(Nc2ccc([N+](=O)[O-])cc2)c1=O [Example 34, 3-({2-[(2,6-dipyrrolidin-1-ylpyrimidin-4-yl)amino]ethyl}amino)-4-[(4-nitrophenyl)amino]cyclobut-3-ene-1,2-dione]	≤ 10 µM	–	≤ 1 µM	–
O=c1c(NCCNc2cc(N3CCCC3)nc(N3CCCC3)n2)c(Nc2ccc(C(F)(F)F)cc2)c1=O [Example 32, 3-({2-[(2,6-dipyrrolidin-1-ylpyrimidin-4-yl)amino]ethyl}amino)-4-{[4-(trifluoromethyl)phenyl]amino}cyclobut-3-ene-1,2-dione]	≤ 10 µM	> 250 °C	≤ 1 µM	–

Further lines, results first:

IC50 [1]	melting point	IC50 [2]	IC50 [3]	SMILES
≤ 10 µM	192 to 194 °C	≤ 1 µM	–	O=c1c(NCCNc2cc(N3CCCC3)nc(N3CCCC3)n2)c(Nc2cc(F)cc(F)c2)c1=O [Example 15, 3-[(3,5-difluorophenyl)amino]-4-({2-[(2,6-dipyrrolidin-1-ylpyrimidin-4-yl)amino]ethyl}amino)cyclobut-3-ene-1,2-dione]
≤ 10 µM	> 250 °C	≤ 1 µM	≤ 10 µM	N#Cc1ccc(Nc2c(NCCNc3cc(N4CCCC4)nc(N4CCCC4)n3)c(=O)c2=O)cc1 [Example 33, 3-({2-[(2,6-dipyrrolidin-1-ylpyrimidin-4-yl)amino]ethyl}amino)-4-[(4-cyanophenyl)amino]cyclobut-3-ene-1,2-dione]
≤ 10 µM	216 to 218 °C	≤ 15 µM	≤ 10 µM	O=c1c(NCCNc2cc(N3CCCC3)nc(N3CCCC3)n2)c(Nc2ccc(Cl)c(C(F)(F)F)c2)c1=O [Example 10, 3-{[4-chloro-3-(trifluoromethyl)phenyl]amino}-4-({2-[(2,6-dipyrrolidin-1-ylpyrimidin-4-yl)amino]ethyl}amino)cyclobut-3-ene-1,2-dione]
≤ 10 µM	218 to 220 °C	≤ 5 µM	≤ 10 µM	O=c1c(NCCNc2cc(N3CCCC3)nc(N3CCCC3)n2)c(Nc2ccc(C3CCCCC3)cc2)c1=O [Example 23, 3-[(4-cyclohexylphenyl)amino]-4-({2-[(2,6-dipyrrolidin-1-ylpyrimidin-4-yl)amino]ethyl}amino)cyclobut-3-ene-1,2-dione]
≤ 10 µM	186 to 188 °C	≤ 1 µM	≤ 10 µM	CC(=O)c1ccc(Nc2c(NCCNc3cc(N4CCCC4)nc(N4CCCC4)n3)c(=O)c2=O)cc1 [Example 19, 3-[(4-acetylphenyl)amino]-4-({2-[(2,6-dipyrrolidin-1-ylpyrimidin-4-yl)amino]ethyl}amino)cyclobut-3-ene-1,2-dione]
≤ 10 µM	–	≤ 1 µM	≤ 10 µM	CCCc1ccc(Nc2c(NCCNc3cc(N4CCCC4)nc(N4CCCC4)n3)c(=O)c2=O)cc1 [Example 24, 3-({2-[(2,6-dipyrrolidin-1-ylpyrimidin-4-yl)amino]ethyl}amino)-4-[(4-propylphenyl)amino]cyclobut-3-ene-1,2-dione]
≤ 10 µM	180 to 190 °C	≤ 1 µM	≤ 10 µM	O=c1c(NCCNc2cc(N3CCCC3)nc(N3CCCC3)n2)c(Nc2ccc3c(c2)OCO3)c1=O [Example 26, 3-(1,3-benzodioxol-5-ylamino)-4-({2-[(2,6-dipyrrolidin-1-ylpyrimidin-4-yl)amino]ethyl}amino)cyclobut-3-ene-1,2-dione]
≤ 10 µM	216 to 218 °C	≤ 1 µM	≤ 10 µM	CC(C)(C)OC(=O)NCCc1ccc(Nc2c(NCCNc3cc(N4CCCC4)nc(N4CCCC4)n3)c(=O)c2=O)cc1 [Example 29, tert-butyl [2-(4-{[2-({2-[(2,6-dipyrrolidin-1-ylpyrimidin-4-yl)amino]ethyl}amino)-3,4-dioxocyclobut-1-en-1-yl]amino}phenyl)ethyl]carbamate]
≤ 10 µM	241 to 243 °C	≤ 1 µM	≤ 10 µM	O=c1c(NCCNc2cc(N3CCCC3)nc(N3CCCC3)n2)c(Nc2ccc(F)cc2)c1=O [Example 31, 3-({2-[(2,6-dipyrrolidin-1-ylpyrimidin-4-yl)amino]ethyl}amino)-4-[(4-fluorophenyl)amino]cyclobut-3-ene-1,2-dione]

— patent US20100173910A1, “TRIAMINOPYRIMIDINE CYCLOBUTENEDIONE DERIVATIVES USED AS PHOSPHATASE CDC25 INHIBITORS” (IPDRN PHSTMS D.S.S., priority 2007, published 2010)
